Source: US20170184612A1, “USE OF LEUKOCYTES AND NOVEL BIOMARKERS IN THE DIAGNOSIS, CONFIRMATION, AND TREATMENT OF A NEUROLOGICAL DISORDER” (The Trustees of Columbia University in the City of New York, priority 2014, published 2017)

Columns and labels:
[1] = tested on: peripheral blood mononuclear cells (PBMC), T cells; test: ELISpot assay, gamma-interferon release (SFC) after stimulation with a-synuclein epitope pools; assay type: cell-based, human; settings: for Pool +: IFNg, Pool Stimulated, number of donors with a positive response, Donors tested 1
Experimental: (§1) Blood from age matched controls and PD patients were obtained and mononuclear cells were isolated by gradient centrifugation.
(§2) Release of the cytokines gamma-interferon, which measures activation of CD4+ and/or CD8+ T cells, and the interleukin, IL-5, which measures activation of CD4+ T cells was measured by ELISpot assay. […] After 22 hours of stimulation at 37 C, the cells were removed and release of cytokines was measured by colorimetric detection of spot-forming cells (SFC). Confirmed release of cytokine is determined by the presence of a minimum of 20 SFC per million cells.
(§3) The binding algorithms in SubAim 1 predict how well the peptides would bind to MHC if present, but not if they are present in patients. To determine this, the presence of T cell response against the candidate antigens by patient blood-derived peripheral blood mononuclear cells (PBMC) is assessed by ELISPOT assays upon stimulation with the peptides. This assay detects and quantifies cytokine release (in this case, IFNγ and IL-5) from specific activated T cells.
(§4) Data were obtained from blood samples (25 ml) from 44 PD patients and 24 age-matched controls. The experiments were conducted blindly. PBMCs from these samples were isolated and exposed to pools comprising the 122 candidate class I and class II antigens and phosphorylated S129 epitopes generated in Subaim 1. For the PBMCs responsive to the pooled peptides, the response was then deconvoluted to identify individual epitopes.
(§5) PMBC fractions are recovered by standard methods with Ficoll gradient and T cells expansion (Oseroff et al., 2010). The methods for the analysis of T cell reactions and measurement of cytokines production using the enzyme-linked immunosorbent spot (ELISPOT) assay are published in analogous experiments to discover antigens in multiple sclerosis (Lolli et al., 2013) and in hay fever allergens (Oseroff et al., 2010). T cell responses are determined by measuring IFNγ and IL-5 release by ELISPOT. Statistical analysis of differences between populations is expected to be non-parametric and analyzed with the U-Mann-Whitney test. If there were a normal distribution of response, which is a priori unlikely as some patients have no T cell response, with an SD=1, 8 patients per group would be required to provide a p>90% that the study detect a >2 fold difference at a two-sided 0.05 significance level.

[2] = tested on: peripheral blood mononuclear cells (PBMC), T cells; test: ELISpot assay, IL-5 release (SFC) after stimulation with a-synuclein epitope pools; assay type: cell-based, human
Experimental: as §1, §2, §3, §4, §5

[3] = Patients Summary, PD patients, of donors tested (peptide)
[4] = Patients Summary, PD patients, single peptide
[5] = number of donors positive to the single peptide, second 'Pool Stimulated' section (from r296), 12 donors tested
[6] = peptide + / donors tested (peptide), second 'Pool Stimulated' section (from r296), 12 donors tested
[7] = single peptide, second 'Pool Stimulated' section (from r296), 12 donors tested
[8] = pool 'Phospho' (phosphorylated peptides)
[9] = Patients Summary, Phospho pool peptides
[10] = Patients Summary, Phospho pool peptides, 10 donors tested
[11] = peptides of pool 'Poshpho', 8 donors tested
[12] = peptides of pool 'Poshpho', 8 donors tested, number of donors positive

3521.0073 (TTVAEKTKEQVTNVG; listed as Homo sapiens)
Pool + [1]: 1
IFNg Peptide + (donors positive to the peptide) [1, 3]: 0
IFNg Response Frequency [1, 4]: 0%
IFNg Total SFC [1, 4]: 0 SFC
IFNg Peptide + [1, 5]: 0
IFNg Response Frequency [1, 6]: 0%
IFNg Total SFC [1, 7]: 0 SFC
IL-g Peptide + (donors positive to the peptide) [2, 3]: 0
IL-g Response Frequency [2, 4]: 0%
IL-g Total SFC [2, 4]: 0 SFC
IL-g Peptide + [2, 5]: 0
IL-g Response Frequency [2, 6]: 0%
IL-g Total SFC [2, 7]: 0 SFC

3521.0054 (MPVDPDNEAY; listed as Homo sapiens)
Pool + [1]: 0
IFNg Peptide + (donors positive to the peptide) [1, 3]: 0
IFNg Response Frequency [1, 4]: 0%
IFNg Total SFC [1, 4]: 0 SFC
IFNg Peptide + [1, 5]: 0
IFNg Response Frequency [1, 6]: 0%
IL-g Peptide + (donors positive to the peptide) [2, 3]: 0
IL-g Response Frequency [2, 4]: 0%
IL-g Total SFC [2, 4]: 0 SFC
IL-g Peptide + [2, 5]: 1
IL-g Response Frequency [2, 6]: 50%
IL-g Avg SFC [2, 7]: 58 SFC
IL-g Total SFC [2, 7]: 58 SFC

3521.0024 (DPDNEAYEM; listed as Homo sapiens)
Pool + [1]: 0
IFNg Peptide + (donors positive to the peptide) [1, 3]: 0
IFNg Response Frequency [1, 4]: 0%
IFNg Total SFC [1, 4]: 0 SFC
IFNg Response Frequency [1, 6]: 50%
IFNg Total SFC [1, 7]: 93.3 SFC
IL-g Peptide + (donors positive to the peptide) [2, 3]: 0
IL-g Response Frequency [2, 4]: 0%
IL-g Total SFC [2, 4]: 0 SFC
IL-g Peptide + [2, 5]: 1
IL-g Response Frequency [2, 6]: 50%
IL-g Avg SFC [2, 7]: 300 SFC
IL-g Total SFC [2, 7]: 300 SFC

3521.0025 (EEGAPQEGI; listed as Homo sapiens)
Pool + [1]: 0
IFNg Peptide + (donors positive to the peptide) [1, 3]: 1
IFNg Avg SFC [1, 4]: 290 SFC
IFNg Response Frequency [1, 4]: 25%
IFNg Total SFC [1, 4]: 290 SFC
IFNg Peptide + [1, 5]: 0
IFNg Response Frequency [1, 6]: 0%
IFNg Total SFC [1, 7]: 0 SFC
IL-g Peptide + (donors positive to the peptide) [2, 3]: 2
IL-g Avg SFC [2, 4]: 86 SFC
IL-g Response Frequency [2, 4]: 50%
IL-g Total SFC [2, 4]: 172 SFC
IL-g Peptide + [2, 5]: 0
IL-g Response Frequency [2, 6]: 0%
IL-g Total SFC [2, 7]: 0 SFC

3521.0085 (EGVVHGVATVAEKTK; listed as Homo sapiens)
Pool + [1]: 1
IFNg Peptide + (donors positive to the peptide) [1, 3]: 0
IFNg Response Frequency [1, 4]: 0%
IFNg Total SFC [1, 4]: 0 SFC
IFNg Peptide + [1, 5]: 0
IFNg Response Frequency [1, 6]: 0%
IFNg Total SFC [1, 7]: 0 SFC
IL-g Peptide + (donors positive to the peptide) [2, 3]: 0
IL-g Response Frequency [2, 4]: 0%
IL-g Total SFC [2, 4]: 0 SFC
IL-g Peptide + [2, 5]: 1
IL-g Response Frequency [2, 6]: 50%
IL-g Avg SFC [2, 7]: 80 SFC
IL-g Total SFC [2, 7]: 80 SFC

3521.0014 (KTVEGAGSI; listed as Homo sapiens)
Pool + [1]: 0
IFNg Peptide + (donors positive to the peptide) [1, 3]: 0
IFNg Response Frequency [1, 4]: 0%
IFNg Total SFC [1, 4]: 0 SFC
IFNg Peptide + [1, 5]: 0
IFNg Response Frequency [1, 6]: 0%
IFNg Total SFC [1, 7]: 0 SFC
IL-g Peptide + (donors positive to the peptide) [2, 3]: 0
IL-g Response Frequency [2, 4]: 0%
IL-g Total SFC [2, 4]: 0 SFC
IL-g Peptide + [2, 5]: 0
IL-g Response Frequency [2, 6]: 0%
IL-g Total SFC [2, 7]: 0 SFC

3521.0023 (YEMPSEEGY; listed as Homo sapiens)
Pool + [1]: 0
Pool + [1, 8]: 1
IFNg Peptide + (donors positive to the peptide) [1, 3]: 0
IFNg Response Frequency [1, 4]: 0%
IFNg Total SFC [1, 4]: 0 SFC
IFNg Avg SFC [1, 9]: 680 SFC
IFNg Response Frequency [1, 9]: 30%
IFNg Total SFC [1, 9]: 2039 SFC
IFNg Peptide + (donors positive to the peptide) [1, 10]: 3
IFNg Peptide + [1, 5]: 0
IFNg Response Frequency [1, 6]: 0%
IFNg Avg SFC [1, 11]: 333 SFC
IFNg Response Frequency [1, 11]: 13%
IFNg Total SFC [1, 11]: 333 SFC
IFNg Peptide + [1, 12]: 1
IL-g Peptide + (donors positive to the peptide) [2, 3]: 0
IL-g Response Frequency [2, 4]: 0%
IL-g Total SFC [2, 4]: 0 SFC
IL-g Avg SFC [2, 9]: 1593 SFC
IL-g Response Frequency [2, 9]: 10%
IL-g Total SFC [2, 9]: 1593 SFC
IL-g Peptide + (donors positive to the peptide) [2, 10]: 1
IL-g Peptide + [2, 5]: 1
IL-g Response Frequency [2, 6]: 50%
IL-g Avg SFC [2, 11]: 193 SFC
IL-g Response Frequency [2, 11]: 13%
IL-g Total SFC [2, 11]: 193 SFC
IL-g Peptide + [2, 12]: 1
IL-g Avg SFC [2, 7]: 58 SFC
IL-g Total SFC [2, 7]: 58 SFC

3521.0026 (MPSEEGYQD; listed as Homo sapiens)
Pool + [1]: 0
Pool + [1, 8]: 1
IFNg Peptide + (donors positive to the peptide) [1, 3]: 0
IFNg Response Frequency [1, 4]: 0%
IFNg Total SFC [1, 4]: 0 SFC
IFNg Avg SFC [1, 9]: 407 SFC
IFNg Response Frequency [1, 9]: 40%
IFNg Total SFC [1, 9]: 1627 SFC
IFNg Peptide + (donors positive to the peptide) [1, 10]: 4
IFNg Peptide + [1, 5]: 0
IFNg Response Frequency [1, 6]: 0%
IFNg Avg SFC [1, 11]: 27 SFC
IFNg Response Frequency [1, 11]: 13%
IFNg Total SFC [1, 11]: 27 SFC
IFNg Peptide + [1, 12]: 1
IL-g Peptide + (donors positive to the peptide) [2, 3]: 0
IL-g Response Frequency [2, 4]: 0%
IL-g Total SFC [2, 4]: 0 SFC
IL-g Avg SFC [2, 9]: 773 SFC
IL-g Response Frequency [2, 9]: 10%
IL-g Total SFC [2, 9]: 773 SFC
IL-g Peptide + (donors positive to the peptide) [2, 10]: 1
IL-g Peptide + [2, 5]: 1
IL-g Response Frequency [2, 6]: 50%
IL-g Avg SFC [2, 11]: 93 SFC
IL-g Response Frequency [2, 11]: 13%
IL-g Total SFC [2, 11]: 93 SFC
IL-g Peptide + [2, 12]: 1
IL-g Avg SFC [2, 7]: 66 SFC
IL-g Total SFC [2, 7]: 66 SFC

3521.0031 (YVGSKTKEGV; listed as Homo sapiens)
Pool + [1]: 0
IFNg Peptide + (donors positive to the peptide) [1, 3]: 1
IFNg Avg SFC [1, 4]: 153 SFC
IFNg Response Frequency [1, 4]: 17%
IFNg Total SFC [1, 4]: 153 SFC
IL-g Peptide + (donors positive to the peptide) [2, 3]: 0
IL-g Response Frequency [2, 4]: 0%
IL-g Total SFC [2, 4]: 0 SFC

3521.002 (AGKTKEGVL; listed as Homo sapiens)
Pool + [1]: 0
IFNg Peptide + (donors positive to the peptide) [1, 3]: 1
IFNg Avg SFC [1, 4]: 98 SFC
IFNg Response Frequency [1, 4]: 13%
IFNg Total SFC [1, 4]: 98 SFC
IFNg Peptide + [1, 5]: 0
IFNg Response Frequency [1, 6]: 0%
IFNg Total SFC [1, 7]: 0 SFC
IL-g Peptide + (donors positive to the peptide) [2, 3]: 1
IL-g Avg SFC [2, 4]: 106 SFC
IL-g Response Frequency [2, 4]: 13%
IL-g Total SFC [2, 4]: 106 SFC
IL-g Peptide + [2, 5]: 0
IL-g Response Frequency [2, 6]: 0%
IL-g Total SFC [2, 7]: 0 SFC

3521.0001 (PVDPDNEAY; listed as Homo sapiens)
Pool + [1]: 0
IFNg Peptide + (donors positive to the peptide) [1, 3]: 0
IFNg Response Frequency [1, 4]: 0%
IFNg Total SFC [1, 4]: 0 SFC
IFNg Peptide + [1, 5]: 0
IFNg Response Frequency [1, 6]: 0%
IL-g Peptide + (donors positive to the peptide) [2, 3]: 0
IL-g Response Frequency [2, 4]: 0%
IL-g Total SFC [2, 4]: 0 SFC
IL-g Peptide + [2, 5]: 0
IL-g Response Frequency [2, 6]: 0%
IL-g Total SFC [2, 7]: 0 SFC

3521.0002 (PSEEGYQDY; listed as Homo sapiens)
Pool + [1]: 0
Pool + [1, 8]: 0
IFNg Peptide + (donors positive to the peptide) [1, 3]: 0
IFNg Response Frequency [1, 4]: 0%
IFNg Total SFC [1, 4]: 0 SFC
IFNg Avg SFC [1, 9]: 460 SFC
IFNg Response Frequency [1, 9]: 10%
IFNg Total SFC [1, 9]: 460 SFC
IFNg Peptide + (donors positive to the peptide) [1, 10]: 1
IFNg Peptide + [1, 5]: 0
IFNg Response Frequency [1, 6]: 0%
IFNg Response Frequency [1, 11]: 0%
IFNg Total SFC [1, 11]: 0 SFC
IFNg Peptide + [1, 12]: 0
IL-g Peptide + (donors positive to the peptide) [2, 3]: 0
IL-g Response Frequency [2, 4]: 0%
IL-g Total SFC [2, 4]: 0 SFC
IL-g Response Frequency [2, 9]: 0%
IL-g Total SFC [2, 9]: 0 SFC
IL-g Peptide + (donors positive to the peptide) [2, 10]: 0
IL-g Peptide + [2, 5]: 0
IL-g Response Frequency [2, 6]: 0%
IL-g Response Frequency [2, 11]: 0%
IL-g Total SFC [2, 11]: 0 SFC
IL-g Peptide + [2, 12]: 0
IL-g Total SFC [2, 7]: 0 SFC

352100.45 (KTKKGVVHGV; listed as Homo sapiens)
Pool + [1]: 0
